Measured values: PubChem BioAssay AID1963961 (Molecular Pharmacology Branch, DTP, NCI, 2024)

System: K98450-129-R-PDC multicell spheroids, viability
Assay: Anticancer human tumor K98450-129-R-PDC patient-derived colon adenocarcinoma cell line growth inhibition [PI3K]
Conditions: for IC50: curve of first compound; for viability, T/C: stronger effect = lower value; active = viability on the fitted dose curve at most 10% of control; inactive = the rest
How it was run: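 Agents were dosed from a top concentration near clinical Cmax (otherwise 10 microM) in half-log decrements, alone or combined with PI3K inhibitors. The spheroids contain tumor cells plus endothelial (HUVEC) and MSC stroma; viability is measured.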
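Also: spheroids exposed to agents for seven days before read-out.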

Cn1nccc1Nc1nccc(-c2ccn(C(CO)c3ccc(Cl)c(F)c3)c(=O)c2)n1 (configuration not stated) + Cc1nc(NC(=O)N2CCCC2C(N)=O)sc1-c1ccnc(C(C)(C)C(F)(F)F)c1
> 10 µM: IC50 (second compound 0.0316 µM) | IC50 (second compound 0.1 µM) | IC50 (second compound 0.316 µM) | IC50 (second compound 1 µM) | IC50 (second compound 3.16 µM) | IC50 (second compound 10 µM)
inactive: viability, T/C (second compound 0.0316 µM, first compound 0.0316 µM) 107% | viability, T/C (second compound 0.0316 µM, first compound 0.1 µM) 97.7% | viability, T/C (second compound 0.0316 µM, first compound 0.316 µM) 103% | viability, T/C (second compound 0.0316 µM, first compound 1 µM) 109% | viability, T/C (second compound 0.0316 µM, first compound 3.16 µM) 97.2% | viability, T/C (second compound 0.0316 µM, first compound 10 µM) 89.2% | viability, T/C (second compound 0.1 µM, first compound 0.0316 µM) 114% | viability, T/C (second compound 0.1 µM, first compound 0.1 µM) 104% | viability, T/C (second compound 0.1 µM, first compound 0.316 µM) 100% | viability, T/C (second compound 0.1 µM, first compound 1 µM) 92.6% | viability, T/C (second compound 0.1 µM, first compound 3.16 µM) 96.7% | viability, T/C (second compound 0.1 µM, first compound 10 µM) 97.8% | viability, T/C (second compound 0.316 µM, first compound 0.0316 µM) 104% | viability, T/C (second compound 0.316 µM, first compound 0.1 µM) 103% | viability, T/C (second compound 0.316 µM, first compound 0.316 µM) 94.1% | viability, T/C (second compound 0.316 µM, first compound 1 µM) 98.6% | viability, T/C (second compound 0.316 µM, first compound 3.16 µM) 98.5% | viability, T/C (second compound 0.316 µM, first compound 10 µM) 83.3% | viability, T/C (second compound 1 µM, first compound 0.0316 µM) 91.6% | viability, T/C (second compound 1 µM, first compound 0.1 µM) 95.2% | viability, T/C (second compound 1 µM, first compound 0.316 µM) 93.5% | viability, T/C (second compound 1 µM, first compound 1 µM) 84.9% | viability, T/C (second compound 1 µM, first compound 3.16 µM) 98.6% | viability, T/C (second compound 1 µM, first compound 10 µM) 80.8% | viability, T/C (second compound 3.16 µM, first compound 0.0316 µM) 78.9% | viability, T/C (second compound 3.16 µM, first compound 0.1 µM) 86.1% | viability, T/C (second compound 3.16 µM, first compound 0.316 µM) 87% | viability, T/C (second compound 3.16 µM, first compound 1 µM) 77.9% | viability, T/C (second compound 3.16 µM, first compound 3.16 µM) 85.4% | viability, T/C (second compound 3.16 µM, first compound 10 µM) 64.7% | viability, T/C (second compound 10 µM, first compound 0.0316 µM) 71% | viability, T/C (second compound 10 µM, first compound 0.1 µM) 70.7% | viability, T/C (second compound 10 µM, first compound 0.316 µM) 72.2% | viability, T/C (second compound 10 µM, first compound 1 µM) 75% | viability, T/C (second compound 10 µM, first compound 3.16 µM) 77.8% | viability, T/C (second compound 10 µM, first compound 10 µM) 50.9%
